Measured values published in patent US10787446B2 (GENENTECH, INC., priority 2015, dated 2020).

Target: T1, hNav1.7 and the β1 subunit (Homo sapiens, UniProt Q15858)
T1 construct: expressed in transfected cells
Assay: Tritiated compound competitive binding to membranes from cells heterologously expressing hNav1.7 and the β1 subunit (LBA)
Settings: competition with 100 pM [3H]compound, 18 h, room temperature; IC50 by 4 parameter logistic model
Procedure, shortened: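 Membranes were incubated 18 h at room temperature with 100 pM [3H]-labelled NaV1.7 inhibitor and increasing test compound in 100 mM NaCl, 20 mM Tris HCl, pH 7.4. Bound radioligand was filtered on PEI-soaked GF/C, washed, and counted by scintillation. IC50 from a 4-parameter logistic fit of % inhibition.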

T1 sequence (Q15858 whole entry): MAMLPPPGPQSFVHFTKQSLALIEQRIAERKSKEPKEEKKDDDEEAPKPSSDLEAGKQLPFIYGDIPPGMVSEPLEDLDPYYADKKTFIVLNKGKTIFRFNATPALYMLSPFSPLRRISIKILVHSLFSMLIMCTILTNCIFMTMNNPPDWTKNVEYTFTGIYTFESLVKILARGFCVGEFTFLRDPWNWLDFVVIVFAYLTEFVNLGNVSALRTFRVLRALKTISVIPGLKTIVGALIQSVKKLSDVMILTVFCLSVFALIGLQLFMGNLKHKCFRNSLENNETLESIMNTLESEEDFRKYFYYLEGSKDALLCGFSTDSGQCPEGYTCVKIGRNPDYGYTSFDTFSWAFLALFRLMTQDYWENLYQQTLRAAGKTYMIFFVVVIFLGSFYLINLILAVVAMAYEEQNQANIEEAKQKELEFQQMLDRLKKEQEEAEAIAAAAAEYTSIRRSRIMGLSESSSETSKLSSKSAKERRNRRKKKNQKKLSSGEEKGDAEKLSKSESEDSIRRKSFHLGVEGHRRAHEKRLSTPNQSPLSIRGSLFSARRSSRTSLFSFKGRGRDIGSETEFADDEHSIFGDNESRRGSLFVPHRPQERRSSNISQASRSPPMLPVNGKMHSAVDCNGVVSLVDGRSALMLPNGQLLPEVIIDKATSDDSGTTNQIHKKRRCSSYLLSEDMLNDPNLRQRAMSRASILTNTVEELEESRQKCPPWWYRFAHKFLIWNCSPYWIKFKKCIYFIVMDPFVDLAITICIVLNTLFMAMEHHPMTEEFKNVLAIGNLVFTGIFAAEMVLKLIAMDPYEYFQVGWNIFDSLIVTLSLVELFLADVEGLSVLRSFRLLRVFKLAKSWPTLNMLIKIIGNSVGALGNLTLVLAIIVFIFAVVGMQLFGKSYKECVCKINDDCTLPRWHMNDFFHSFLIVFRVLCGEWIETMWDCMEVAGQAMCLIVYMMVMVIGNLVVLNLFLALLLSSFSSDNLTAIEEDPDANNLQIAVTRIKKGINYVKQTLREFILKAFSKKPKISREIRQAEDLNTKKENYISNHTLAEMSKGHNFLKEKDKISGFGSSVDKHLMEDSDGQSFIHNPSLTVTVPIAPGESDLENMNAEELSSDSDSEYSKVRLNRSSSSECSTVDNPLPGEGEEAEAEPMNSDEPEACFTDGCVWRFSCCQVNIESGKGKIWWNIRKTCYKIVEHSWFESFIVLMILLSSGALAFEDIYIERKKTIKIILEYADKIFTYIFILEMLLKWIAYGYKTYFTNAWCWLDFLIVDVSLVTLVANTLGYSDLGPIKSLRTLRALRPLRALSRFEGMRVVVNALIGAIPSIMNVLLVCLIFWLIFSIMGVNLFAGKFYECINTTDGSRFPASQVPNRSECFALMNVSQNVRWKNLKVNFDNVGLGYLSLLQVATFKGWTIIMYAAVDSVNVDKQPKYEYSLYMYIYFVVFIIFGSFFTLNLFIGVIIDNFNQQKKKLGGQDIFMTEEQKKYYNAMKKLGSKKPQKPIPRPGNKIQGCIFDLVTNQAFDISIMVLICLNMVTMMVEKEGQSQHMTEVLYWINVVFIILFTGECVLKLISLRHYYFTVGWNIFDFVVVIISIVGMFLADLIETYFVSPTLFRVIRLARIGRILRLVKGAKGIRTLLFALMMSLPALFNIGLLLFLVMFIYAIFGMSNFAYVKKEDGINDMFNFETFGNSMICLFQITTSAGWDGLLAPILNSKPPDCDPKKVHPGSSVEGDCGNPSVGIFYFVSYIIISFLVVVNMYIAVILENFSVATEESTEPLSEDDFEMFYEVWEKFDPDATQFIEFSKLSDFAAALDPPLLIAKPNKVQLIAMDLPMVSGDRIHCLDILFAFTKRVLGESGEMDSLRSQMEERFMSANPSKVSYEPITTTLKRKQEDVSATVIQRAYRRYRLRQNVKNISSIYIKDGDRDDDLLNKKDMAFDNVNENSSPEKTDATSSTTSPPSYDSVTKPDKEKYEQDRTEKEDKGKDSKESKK
T1 sequence (Q07699 19-218 partner): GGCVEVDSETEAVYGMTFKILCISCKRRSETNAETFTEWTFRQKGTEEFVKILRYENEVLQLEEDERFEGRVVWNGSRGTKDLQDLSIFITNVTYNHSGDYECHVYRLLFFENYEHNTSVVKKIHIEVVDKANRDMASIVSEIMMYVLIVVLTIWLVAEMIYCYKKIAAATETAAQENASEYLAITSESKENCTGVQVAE

| Compound | Nav1.7 (LBA) |
| --- | --- |
| O=S(=O)(Nc1ncns1)c1ccc2c(c1)OCC[C@H]2N1CCC(F)(F)C[C@@H]1c1ccc(F)cc1 (single isomer, unassigned) [Example 132] | 0.0757 µM |
| O=S(=O)(Nc1nccs1)c1cc2c(cc1F)[C@H](N1CC[C@H](C(F)(F)F)C[C@@H]1c1ccc(F)cc1)CCO2 [Example 209, (R)-6-fluoro-4-((2R,4S)-2-(4-fluorophenyl)-4-(trifluoromethyl)piperidin-1-yl)-N-(thiazol-2-yl)chromane-7-sulfonamide] | 0.0683 µM |
| O=S(=O)(Nc1ncns1)c1cc(F)c(CN2CCC3(CC3)C[C@H]2c2ccccc2)cc1F [Example 110, (S)-2,5-difluoro-4-((5-phenyl-6-azaspiro[2.5]octan-6-yl)methyl)-N-(1,2,4-thiadiazol-5-yl)benzenesulfonamide] | 0.337 µM |
| N#CC1CC12CCN([C@H]1CCOc3cc(S(=O)(=O)Nc4ncns4)ccc31)CC2 (stereo partly drawn) [Example 154] | 4.52 µM |
| O=S(=O)(Nc1ncns1)c1ccc2c(c1)OCC[C@@H]2N1CC[C@@](O)(C(F)(F)F)C[C@H]1c1ccc(F)cc1 [Example 168, (S)-4-((2S,4S)-2-(4-fluorophenyl)-4-hydroxy-4-(trifluoromethyl)piperidin-1-yl)-N-(1,2,4-thiadiazol-5-yl)chroman-7-sulfonamide] | 0.000878 µM |
| O=S(=O)(Nc1ncns1)c1ccc2c(c1)CCC[C@@H]2N1CCCC[C@@H]1c1ccccc1 (single isomer, unassigned) [Example 51] | 0.482 µM |
| Cc1cc([C@@H]2C[C@H](C(F)(F)F)CCN2[C@H]2CCOc3cc(S(=O)(=O)Nc4ncns4)ccc32)n(C)n1 [Example 203, (S)-4-((2S,4R)-2-(1,3-dimethyl-1H-pyrazol-5-yl)-4-(trifluoromethyl)piperidin-1-yl)-N-(1,2,4-thiadiazol-5-yl)chroman-7-sulfonamide] | 0.00824 µM |
| Nc1cc([C@@H]2CCCCN2Cc2cc(F)c(S(=O)(=O)Nc3ncns3)cc2F)ccn1 (single isomer, unassigned) [Example 13] | 0.158 µM |
| O=S(=O)(Nc1ncns1)c1ccc2c(c1)C(F)(F)CC[C@H]2N1CCCC[C@H]1c1cccnc1 (single isomer, unassigned) [Example 228] | 0.504 µM |
| O=S(=O)(Nc1ncns1)c1ccc2c(c1)OCC[C@H]2N1CC[C@@H](CF)C[C@H]1c1ccc(F)cc1 [Example 181, (R)-4-((2S,4R)-4-(fluoromethyl)-2-(4-fluorophenyl)piperidin-1-yl)-N-(1,2,4-thiadiazol-5-yl)chroman-7-sulfonamide] | 0.735 µM |
| Cn1nccc1[C@H]1CCCCN1Cc1cc(F)c(S(=O)(=O)Nc2ncns2)cc1F (single isomer, unassigned) [Example 14] | 0.22 µM |
| O=S(=O)(Nc1ncns1)c1ccc2c(c1)CCC[C@H]2N1CCCC[C@@H]1c1ccccc1 (single isomer, unassigned) [Example 55] | 0.286 µM |
| O=S(=O)(Nc1nccs1)c1cc2c(cc1F)[C@H](N1CC[C@@H](C(F)(F)F)C[C@H]1c1cccnc1)CCO2 [Example 193, (R)-6-fluoro-4-((2S,4R)-2-(pyridin-3-yl)-4-(trifluoromethyl)piperidin-1-yl)-N-(thiazol-2-yl)chroman-7-sulfonamide] | 0.0103 µM |
| NC(=O)c1cccc([C@@H]2C[C@H](C(F)(F)F)CCN2[C@H]2CCOc3cc(S(=O)(=O)Nc4ncns4)ccc32)c1 [Example 205, 3-((2S,4R)-1-((S)-7-(N-(1,2,4-thiadiazol-5-yl)sulfamoyl)chroman-4-yl)-4-(trifluoromethyl)piperidin-2-yl)benzamide] | 0.000907 µM |
| O=S(=O)(Nc1ncns1)c1ccc2c(c1)OCC[C@H]2N1CCc2ccccc2[C@H]1c1ccccc1 (single isomer, unassigned) [Example 81] | 0.435 µM |
| O=S(=O)(Nc1ncns1)c1ccc2c(c1)OCC[C@H]2N1CC[C@@H](C(F)(F)F)C[C@H]1c1ccccn1 [Example 191, (R)-4-((2S,4R)-2-(pyridin-2-yl)-4-(trifluoromethyl)piperidin-1-yl)-N-(1,2,4-thiadiazol-5-yl)chroman-7-sulfonamide] | 0.176 µM |
| O=S(=O)(Nc1ncccn1)c1cc2c(cc1F)[C@@H](N1CCCC[C@H]1c1ccccc1)CCO2 (single isomer, unassigned) [Example 94] | 0.423 µM |
| O=S(=O)(Nc1ncns1)c1ccc2c(c1)OCC[C@H]2N1CCCC[C@H]1c1ccccc1 (single isomer, unassigned) [Example 38] | 0.203 µM |
| O=S(=O)(Nc1ncns1)c1ccc(CN2CCCC[C@@H]2c2ccccc2)c(Cl)c1 [Example 64, (R)-3-chloro-4-((2-phenylpiperidin-1-yl)methyl)-N-(1,2,4-thiadiazol-5-yl)benzenesulfonamide] | 0.965 µM |
| O=S(=O)(Nc1ncns1)c1ccc2c(c1)OCC[C@@H]2N1CC[C@](O)(C(F)(F)F)C[C@@H]1c1ccc(F)cc1 [Example 169, (S)-4-((2R,4R)-2-(4-fluorophenyl)-4-hydroxy-4-(trifluoromethyl)piperidin-1-yl)-N-(1,2,4-thiadiazol-5-yl)chroman-7-sulfonamide] | 0.0682 µM |

| Compound | Nav1.7 (LBA) |
| --- | --- |
| O=S(=O)(Nc1ncns1)c1ccc2c(c1)OCC[C@@H]2N1CCN(CC(F)F)C[C@H]1c1ccc(F)cc1 [Example 222, (S)-4-((R)-4-(2,2-difluoroethyl)-2-(4-fluorophenyl)piperazin-1-yl)-N-(1,2,4-thiadiazol-5-yl)chromane-7-sulfonamide] | 0.0262 µM |
| O=S(=O)(Nc1ncns1)c1ccc(CN2CCC[C@H]2c2ccccc2)c(Cl)c1 [Example 48, (S)-3-chloro-4-((2-phenylpyrrolidin-1-yl)methyl)-N-(1,2,4-thiadiazol-5-yl)benzenesulfonamide] | 1.48 µM |
| O=S(=O)(Nc1ncccn1)c1cc2c(cc1F)[C@H](N1CCCC[C@H]1c1ccccc1)CCO2 (single isomer, unassigned) [Example 95] | 1.54 µM |
| O=S(=O)(Nc1nccs1)c1cc2c(cc1F)[C@@H](N1CC[C@H](C(F)(F)F)C[C@@H]1c1ccn[nH]1)CCO2 [Example 212, (S)-4-((2R,4S)-2-(1H-pyrazol-5-yl)-4-(trifluoromethyl)piperidin-1-yl)-6-fluoro-N-(thiazol-2-yl)chromane-7-sulfonamide] | 0.0033 µM |
| O=S(=O)(Nc1nccs1)c1cc2c(cc1F)[C@H](N1CC[C@@H](C(F)(F)F)C[C@H]1c1ccc(F)cc1)CCO2 [Example 214, (R)-6-fluoro-4-((2S,4R)-2-(4-fluorophenyl)-4-(trifluoromethyl)piperidin-1-yl)-N-(thiazol-2-yl)chromane-7-sulfonamide] | 0.00144 µM |
| CN1CCN([C@H]2CCOc3cc(S(=O)(=O)Nc4ncns4)ccc32)[C@H](c2ccc(F)cc2)C1 [Example 221, (S)-4-((R)-2-(4-fluorophenyl)-4-methylpiperazin-1-yl)-N-(1,2,4-thiadiazol-5-yl)chromane-7-sulfonamide] | 0.223 µM |
| C[C@H]1CCN(Cc2cc(F)c(S(=O)(=O)Nc3ncns3)cc2F)[C@@H](c2ccccc2)C1 (single isomer, unassigned) [Example 7] | 4.23 µM |
| O=S(=O)(Nc1ncns1)c1ccc2c(c1)OCC[C@@H]2N1CCCC[C@H]1c1ccccc1 (single isomer, unassigned) [Example 37] | 0.0254 µM |
| O=S(=O)(Nc1ncns1)c1cc2c(cc1F)[C@H](N1CC[C@@](O)(C(F)(F)F)C[C@H]1c1ccc(F)cc1)CCO2 [Example 171, (R)-6-fluoro-4-((2S,4S)-2-(4-fluorophenyl)-4-hydroxy-4-(trifluoromethyl)piperidin-1-yl)-N-(1,2,4-thiadiazol-5-yl)chroman-7-sulfonamide] | 2.028 µM |
| O=S(=O)(Nc1ncns1)c1cc(F)c(CN2CCCC[C@H]2c2ccn[nH]2)cc1F (single isomer, unassigned) [Example 27] | 0.118 µM |
| O=S(=O)(Nc1nncs1)c1cc2c(cc1F)[C@@H](N1CC[C@@H](C(F)(F)F)C[C@H]1c1ccc(F)cc1)CCO2 [Example 231, (S)-6-fluoro-4-((2S,4R)-2-(4-fluorophenyl)-4-(trifluoromethyl)piperidin-1-yl)-N-(1,3,4-thiadiazol-2-yl)chroman-7-sulfonamide] | 0.00495 µM |
| O=S(=O)(Nc1ncns1)c1ccc2c(c1)OCC[C@H]2N1CCC(F)(F)C[C@H]1c1ccccc1 (single isomer, unassigned) [Example 139] | 2.29 µM |
| CC(C)(O)[C@H]1CCN([C@H]2CCOc3cc(S(=O)(=O)Nc4ncns4)ccc32)[C@@H](c2ccc(F)cc2)C1 (single isomer, unassigned) [Example 136] | 0.0194 µM |
| O=S(=O)(Nc1ncns1)c1cc(F)c(CN2CC[C@H](F)C[C@H]2c2ccccc2)cc1F (single isomer, unassigned) [Example 31] | 0.374 µM |
| CC(C)(O)[C@H]1CCN([C@@H]2CCOc3cc(S(=O)(=O)Nc4ncns4)ccc32)[C@@H](c2ccc(F)cc2)C1 (single isomer, unassigned) [Example 135] | 0.0271 µM |
| O=S(=O)(Nc1ncns1)c1cc(F)c(CN2CCC(F)(F)C[C@H]2c2ccccc2)cc1F (single isomer, unassigned) [Example 32] | 0.18 µM |
| CC(C)[C@@H]1CCN([C@H]2CCOc3cc(S(=O)(=O)Nc4ncns4)ccc32)[C@H](c2ccccc2)C1 (single isomer, unassigned) [Example 127] | 0.00883 µM |
| O=S(=O)(Nc1ncccn1)c1cc2c(cc1F)[C@@H](N1CC[C@@H](C(F)(F)F)C[C@H]1c1ccc(F)cc1)CCO2 (single isomer, unassigned) [Example 97] | 0.0217 µM |
| Cn1nccc1[C@@H]1C[C@H](C(F)(F)F)CCN1[C@@H]1CCOc2cc(S(=O)(=O)Nc3nccs3)c(F)cc21 [Example 159] | 0.18 µM |
